Assay results as given in patent US7115641B2, “Antimicrobial oxazolidine/iodopropynyl-butyl carbamate composition containing less than 0.1wt% free formaldehyde” (ISP Investments Inc., priority 2003, dated 2006).

Assays:
Format in all cases: cell-based
[1] = tested on: Bacillus subtilis (ATCC 27328); experiment: MIC and synergy in Tryptic Soy Broth; conditions: TSB, 32° C., 2–3 days
Description: (§1) One hundred μl of the bacterial suspensions were added to TSB broth containing each biocide or biocide mixture to a final concentration of approximately 10^6 CFU/ml. The inoculated broth was then incubated at 32° C. for 2–3 days. For fungi MIC, 10 μl of the fungi suspensions were pipetted to the solidified Malt agar containing various concentrations of each biocide or the biocide mixture. Final concentration about 10^5 spores/ml. Plates were incubated for 10–12 days at 28° C.
(§2) The lowest concentration of each compound or mixture to inhibit visible growth at 32° C. after 2–3 days for bacteria and at 28° after 10–12 days for fungi were taken as the Minimal Inhibitory Concentration (MIC). The MIC was taken as endpoints of activity. End points for the mixture of HMBO and IPBC where then compared with the end points for the pure active compound when employed individually.
(§3) Synergism was determined by a commonly used method described by Kull, A. C., Eisman, P. C, Sylwestrowicz, H., D. and Mayer, R. L. (1961). Applied Microbiology, 9:538 using the ratio determined by: Qa/QA+Qb/QB=Synergy Index (SI).
Wherein: QA is the concentration of HMBO in parts per million (ppm), acting alone, which produced and end point. Qa is the concentration of HMBO in ppm, in the mixture, which produced and end point. […]

[2] = tested on: mixed culture of Pseudomonas aeruginosa, Enterobacter cloacae, Bacillus subtilis, B. megaterium, B. licheniformis, Aspergillus niger and Penicillium …; experiment: Latex paint in-can preservation, ASTM D2574-94, mixed inoculum; set-up: key: 0: no growth; 4: heavy growth
Description: The efficacy of each individual compound or their combination was measured in a latex paint artificially contaminated with a mixed inoculum. The microbiological evaluations shown as examples, are based on ASTM D2574–94, “Resistance of emulsion paints in the container to the attack of microorganisms”. Briefly, paint samples (e.g. Polyvinyl Acrylic, PCL 717) were prepared to contain different concentrations of each compound or their mixtures in different concentrations and ratios. Each paint sample thus prepared was then inoculated with a mixed culture of Pseudomonas aeruginosa, Enterobacter cloacae, Bacillus subtilis, B. megaterium, B. licheniformis, Aspergillus niger and Penicillium funiculosum (final concentration of about 10^6 CFU/ml) and re-challenged after 7 days (final concentration of about 10^7 CFU/ml). Paint samples were incubated at 32° C. for the duration of the test and sampled for the presence of viable bacteria on TSA and M plates. Growth was rated on a scale from “0” (no growth) to “4” (heavy growth). A paint sample was considered appropriately preserved if no bacterial growth (“0” rating) was detected after six days incubation in both challenge assays.
The table summarizes the results obtained when mixtures of the low formaldehyde hydroxymethyl oxazolidine (HMBO) (compound A) and IPBC (compound B) in PEG-400 were tested.

Alternaria alternata = experiment: MIC and synergy on Malt Agar; conditions: 28° C., 10–12 days
Description: as §1, §2, §3
(§4) Wherein: QA is the concentration of HMBO in parts per million (ppm), acting alone, which produced and end point. Qa is the concentration of HMBO in ppm, in the mixture, which produced and end point. QB is the concentration of IPBC in ppm, acting alone, which produced an end point and Qb is the concentraton of IPBC in ppm, in the mixture, which produced an end point.
(§5) When the sum of Qa/QA+Qb/QB is greater than one, antagonism is indicated. When the sum is equal to one, additivity is indicated.

[3] = tested on: Aspergillus niger (ATCC 6275); experiment: MIC and synergy on Malt Agar; conditions: 28° C., 10–12 days
Description: as §1, §2, §3, §4, §5

## CCCCNC(=O)OCC#CI [compound B, iodopropynyl butyl carbamate]
[1]
  Minimal Inhibitory Concentration (MIC), acting alone: 62.5 ppm
[2]; B alone 60 ppm
  Growth rating MALT Plates CI 1: 0
  Growth rating MALT Plates CI 2: 1
  Growth rating MALT Plates CI 3: 0
  Growth rating MALT Plates CI 6: 0
  Growth rating MALT Plates CII 1: 4
  Growth rating MALT Plates CII 2: 4
  Growth rating MALT Plates CII 3: 4
  Growth rating MALT Plates CII 6: 4
  Growth rating TSA plates CI 1: 0
  Growth rating TSA plates CI 2: 0
  Growth rating TSA plates CI 3: 1
  Growth rating TSA plates CI 6: 0
  Growth rating TSA plates CII 1: 4
  Growth rating TSA plates CII 2: 4
  Growth rating TSA plates CII 3: 4
  Growth rating TSA plates CII 6: 3
[2]; B alone 120 ppm
  Growth rating MALT Plates CI 1: 4
  Growth rating MALT Plates CI 2: 4
  Growth rating MALT Plates CI 3: 2
  Growth rating MALT Plates CI 6: 0
  Growth rating MALT Plates CII 1: 4
  Growth rating MALT Plates CII 2: 4
  Growth rating MALT Plates CII 3: 4
  Growth rating MALT Plates CII 6: 4
  Growth rating TSA plates CI 1: 4
  Growth rating TSA plates CI 2: 2
  Growth rating TSA plates CI 3: 0
  Growth rating TSA plates CI 6: 0
  Growth rating TSA plates CII 1: 4
  Growth rating TSA plates CII 2: 3
  Growth rating TSA plates CII 3: 3
  Growth rating TSA plates CII 6: 3
[2]; B alone 200 ppm
  Growth rating MALT Plates CI 1: 4
  Growth rating MALT Plates CI 2: 2
  Growth rating MALT Plates CI 3: 1
  Growth rating MALT Plates CI 6: 0
  Growth rating MALT Plates CII 1: 4
  Growth rating MALT Plates CII 2: 4
  Growth rating MALT Plates CII 3: 4
  Growth rating MALT Plates CII 6: 4
  Growth rating TSA plates CI 1: 4
  Growth rating TSA plates CI 2: 2
  Growth rating TSA plates CI 3: 0
  Growth rating TSA plates CI 6: 0
  Growth rating TSA plates CII 1: 4
  Growth rating TSA plates CII 2: 3
  Growth rating TSA plates CII 3: 3
  Growth rating TSA plates CII 6: 3
Alternaria alternata
  Minimal Inhibitory Concentration (MIC), acting alone: 0.50 ppm
[3]
  Minimal Inhibitory Concentration (MIC), acting alone: 0.25 ppm

## OCC12COCN1COC2 [compound A, hydroxymethyl bicyclic oxazolidine]
[1]
  Minimal Inhibitory Concentration (MIC), acting alone: 250 ppm
[2]; A alone 500 ppm
  Growth rating MALT Plates CI 1: 0
  Growth rating MALT Plates CI 2: 0
  Growth rating MALT Plates CI 3: 0
  Growth rating MALT Plates CI 6: 0
  Growth rating MALT Plates CII 1: 0
  Growth rating MALT Plates CII 2: 0
  Growth rating MALT Plates CII 3: 0
  Growth rating MALT Plates CII 6: 0
  Growth rating TSA plates CI 1: 0
  Growth rating TSA plates CI 2: 0
  Growth rating TSA plates CI 3: 0
  Growth rating TSA plates CI 6: 0
  Growth rating TSA plates CII 1: 1
  Growth rating TSA plates CII 2: 1
  Growth rating TSA plates CII 3: 1
  Growth rating TSA plates CII 6: 1
[2]; A alone 520 ppm
  Growth rating MALT Plates CI 1: 0
  Growth rating MALT Plates CI 2: 0
  Growth rating MALT Plates CI 3: 0
  Growth rating MALT Plates CI 6: 0
  Growth rating MALT Plates CII 1: 0
  Growth rating MALT Plates CII 2: 1
  Growth rating MALT Plates CII 3: 1
  Growth rating MALT Plates CII 6: 0
  Growth rating TSA plates CI 1: 0
  Growth rating TSA plates CI 2: 0
  Growth rating TSA plates CI 3: 0
  Growth rating TSA plates CI 6: 0
  Growth rating TSA plates CII 1: 0
  Growth rating TSA plates CII 2: 0
  Growth rating TSA plates CII 3: 1
  Growth rating TSA plates CII 6: 0
Alternaria alternata
  Minimal Inhibitory Concentration (MIC), acting alone: 250 ppm
[3]
  Minimal Inhibitory Concentration (MIC), acting alone: 1,000 ppm
